Patent US20100099561A1, “HETEROBICYCLIC ALKYLTHIO-BRIDGED ISOXAZOLINES” (E.I. DU PONT DE NEMOURS AND COMPANY, priority 2008, published 2010)

What was measured:
Assay type in all cases: in vivo
[1] = test system: barnyardgrass (Echinochloa crus-galli); assay: Test A postemergence, barnyardgrass; details: 0 to 100 scale (0 no effect, 100 complete control)
Method in brief: (§1)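 Greenhouse pre/postemergence test, loam–sand soil. Postemergence plants one- to two-leaf, 2–10 cm. Visual injury rating ~10 d after treatment, 0–100 vs untreated.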

wild oat (Avena fatua) = assay: Test B preemergence, wild oat; details: scale 0 to 100
Source text: (§2) Seeds of plant species selected from blackgrass (Alopecurus myosuroides), downy bromegrass (Bromus tectorum), green foxtail (Setaria viridis), Italian ryegrass (Lolium multiflorum), wheat (Triticum aestivum), wild oat (Avena fatua), catchweed bedstraw (Galium aparine), bermudagrass (Cynodon dactylon), Surinam grass (Brachiaria decumbens), cocklebur (Xanthium strumarium), corn (Zea mays), large crabgrass (Digitaria sanguinalis), woolly cupgrass (Eriochloa villosa), giant foxtail (Setaria faberii), goosegrass (Eleusine indica), johnsongrass (Sorghum halepense), kochia (Kochia scoparia), lambsquarters (Chenopodium album), morningglory (Ipomoea coccinea), nightshade (eastern black nightshade, Solanum ptycanthum), yellow nutsedge (Cyperus esculentus), pigweed (Amaranthus retroflexus), ragweed (common ragweed, Ambrosia elatior), soybean (Glycine max), sunflower (common oilseed sunflower, Helianthus annuus), Russian thistle (Salsola kali), and velvetleaf (Abutilon theophrasti) were planted into a blend of loam soil and sand and treated preemergence with test compounds formulated in a non-phytotoxic solvent mixture which included a surfactant. Treated plants and controls were maintained in a greenhouse for 13 to 15 days, after which time all species were compared to controls and visually evaluated. Plant response ratings, summarized in Table B, are based on a scale of 0 to 100 where 0 is no effect and 100 is complete control. A dash (-) response means no test result.

soybean (Glycine max) = assay: Test B preemergence, soybean; details: Preemergence, scale 0 to 100
Method in brief: (§3)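 Seeds are planted in a loam–sand blend and treated preemergence using a non-phytotoxic solvent formulation including surfactant. Greenhouse incubation lasts 13 to 15 days. Ratings run 0–100 versus controls.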

[2] = test system: large crabgrass (Digitaria sanguinalis); assay: Test A postemergence, large crabgrass; details: 0 to 100 scale (0 no effect, 100 complete control)
Method in brief: as §1

[3] = test system: lambsquarters (Chenopodium album); assay: Test B preemergence, lambsquarters; details: scale 0 to 100
Source text: as §2

[4] = test system: Italian ryegrass (Lolium multiflorum); assay: Test B preemergence, Italian ryegrass; details: Preemergence, scale 0 to 100
Method in brief: as §3

[5] = test system: morningglory (Ipomoea coccinea); assay: Test B preemergence, morningglory; details: scale 0 to 100
Source text: as §2

[6] = test system: pigweed (Amaranthus retroflexus); assay: Test B preemergence, pigweed; details: scale 0 to 100
Source text: as §2

[7] = test system: Surinam grass (Brachiaria decumbens); assay: Test B preemergence, Surinam grass; details: Preemergence, scale 0 to 100
Method in brief: as §3

[8] = test system: woolly cupgrass (Eriochloa villosa); assay: Test B preemergence, woolly cupgrass; details: scale 0 to 100
Source text: as §2

[9] = test system: downy bromegrass (Bromus tectorum); assay: Test B preemergence, downy bromegrass; details: scale 0 to 100
Source text: as §2

[10] = test system: nightshade (eastern black nightshade, Solanum ptycanthum); assay: Test B preemergence, nightshade; details: scale 0 to 100
Source text: as §2

[11] = test system: bermudagrass (Cynodon dactylon); assay: Test B preemergence, bermudagrass; details: scale 0 to 100
Source text: as §2

[12] = test system: blackgrass (Alopecurus myosuroides); assay: Test B preemergence, blackgrass; details: scale 0 to 100
Source text: as §2

[13] = test system: ragweed (common ragweed, Ambrosia elatior); assay: Test B preemergence, ragweed; details: scale 0 to 100
Source text: as §2

[14] = test system: wheat (Triticum aestivum); assay: Test A postemergence, wheat; details: 0 to 100 scale (0 no effect, 100 complete control)
Method in brief: as §1

[15] = test system: wheat (Triticum aestivum); assay: Test A preemergence, wheat; details: 0 to 100 scale (0 no effect, 100 complete control)
Method in brief: as §1

[16] = test system: morningglory (Ipomoea spp.); assay: Test A postemergence, morningglory; details: 0 to 100 scale (0 no effect, 100 complete control)
Method in brief: as §1

[17] = test system: morningglory (Ipomoea spp.); assay: Test A preemergence, morningglory; details: 0 to 100 scale (0 no effect, 100 complete control)
Method in brief: as §1

[18] = test system: large crabgrass (Digitaria sanguinalis); assay: Test B preemergence, large crabgrass; details: scale 0 to 100
Source text: as §2

[19] = test system: velvetleaf (Abutilon theophrasti); assay: Test B preemergence, velvetleaf; details: Preemergence, scale 0 to 100
Method in brief: as §3

## CC1(C)CC(S(=O)(=O)Cc2c(C(F)(F)Cl)nc3n(c2=O)CCC3)=NO1 [Compound 18]
[1]; 125 g ai/ha
  Plant response rating, Barnyardgrass: 80
[1]; 500 g ai/ha
  Plant response rating, Barnyardgrass: 80
Wild oat (Avena fatua); 16 g ai/ha
  Plant response rating, Oat, Wild: 0
Wild oat (Avena fatua); 31 g ai/ha
  Plant response rating, Oat, Wild: 0
Wild oat (Avena fatua); 62 g ai/ha
  Plant response rating, Oat, Wild: 0
Wild oat (Avena fatua); 125 g ai/ha
  Plant response rating, Oat, Wild: 45
Soybean (Glycine max); 16 g ai/ha
  Plant response rating, Soybean: 0
Soybean (Glycine max); 31 g ai/ha
  Plant response rating, Soybean: 0
Soybean (Glycine max); 62 g ai/ha
  Plant response rating, Soybean: 0
Soybean (Glycine max); 125 g ai/ha
  Plant response rating, Soybean: 0
[2]; 125 g ai/ha
  Plant response rating, Crabgrass, Large: 60
[2]; 500 g ai/ha
  Plant response rating, Crabgrass, Large: 90
[3]; 16 g ai/ha
  Plant response rating, Lambsquarters: 0
[3]; 31 g ai/ha
  Plant response rating, Lambsquarters: 0
[3]; 62 g ai/ha
  Plant response rating, Lambsquarters: 75
[3]; 125 g ai/ha
  Plant response rating, Lambsquarters: 85
[4]; 16 g ai/ha
  Plant response rating, Ryegrass, Italian: 0
[4]; 31 g ai/ha
  Plant response rating, Ryegrass, Italian: 0
[4]; 62 g ai/ha
  Plant response rating, Ryegrass, Italian: 35
[4]; 125 g ai/ha
  Plant response rating, Ryegrass, Italian: 40
[5]; 16 g ai/ha
  Plant response rating, Morningglory: 0
[5]; 31 g ai/ha
  Plant response rating, Morningglory: 0
[5]; 62 g ai/ha
  Plant response rating, Morningglory: 0
[5]; 125 g ai/ha
  Plant response rating, Morningglory: 45
[6]; 16 g ai/ha
  Plant response rating, Pigweed: 0
[6]; 31 g ai/ha
  Plant response rating, Pigweed: 100
[6]; 62 g ai/ha
  Plant response rating, Pigweed: 100
[6]; 125 g ai/ha
  Plant response rating, Pigweed: 100
[7]; 16 g ai/ha
  Plant response rating, Surinam Grass: 0
[7]; 31 g ai/ha
  Plant response rating, Surinam Grass: 40
[7]; 62 g ai/ha
  Plant response rating, Surinam Grass: 75
[7]; 125 g ai/ha
  Plant response rating, Surinam Grass: 85
[8]; 16 g ai/ha
  Plant response rating, Cupgrass, Woolly: 0
[8]; 31 g ai/ha
  Plant response rating, Cupgrass, Woolly: 20
[8]; 62 g ai/ha
  Plant response rating, Cupgrass, Woolly: 65
[8]; 125 g ai/ha
  Plant response rating, Cupgrass, Woolly: 95
[9]; 16 g ai/ha
  Plant response rating, Bromegrass, Downy: 0
[9]; 31 g ai/ha
  Plant response rating, Bromegrass, Downy: 0
[9]; 62 g ai/ha
  Plant response rating, Bromegrass, Downy: 0
[9]; 125 g ai/ha
  Plant response rating, Bromegrass, Downy: 20
[10]; 16 g ai/ha
  Plant response rating, Nightshade: 0
[10]; 31 g ai/ha
  Plant response rating, Nightshade: 0
[10]; 62 g ai/ha
  Plant response rating, Nightshade: 0
[10]; 125 g ai/ha
  Plant response rating, Nightshade: 95
[11]; 16 g ai/ha
  Plant response rating, Bermudagrass: 0
[11]; 31 g ai/ha
  Plant response rating, Bermudagrass: 98
[11]; 62 g ai/ha
  Plant response rating, Bermudagrass: 100
[11]; 125 g ai/ha
  Plant response rating, Bermudagrass: 100
[12]; 16 g ai/ha
  Plant response rating, Blackgrass: 0
[12]; 31 g ai/ha
  Plant response rating, Blackgrass: 0
[12]; 62 g ai/ha
  Plant response rating, Blackgrass: 10
[12]; 125 g ai/ha
  Plant response rating, Blackgrass: 98
[13]; 16 g ai/ha
  Plant response rating, Ragweed: 0
[13]; 31 g ai/ha
  Plant response rating, Ragweed: 0
[13]; 62 g ai/ha
  Plant response rating, Ragweed: 0
[13]; 125 g ai/ha
  Plant response rating, Ragweed: 0
[14]; 125 g ai/ha
  Plant response rating, Wheat: 0
[14]; 500 g ai/ha
  Plant response rating, Wheat: 60
[15]; 125 g ai/ha
  Plant response rating, Wheat: 0
[15]; 500 g ai/ha
  Plant response rating, Wheat: 30
[16]; 125 g ai/ha
  Plant response rating, Morningglory: 30
[16]; 500 g ai/ha
  Plant response rating, Morningglory: 60
[17]; 125 g ai/ha
  Plant response rating, Morningglory: 0
[17]; 500 g ai/ha
  Plant response rating, Morningglory: 50
[18]; 16 g ai/ha
  Plant response rating, Crabgrass, Large: 0
[18]; 31 g ai/ha
  Plant response rating, Crabgrass, Large: 70
[18]; 62 g ai/ha
  Plant response rating, Crabgrass, Large: 90
[18]; 125 g ai/ha
  Plant response rating, Crabgrass, Large: 100
[19]; 16 g ai/ha
  Plant response rating, Velvetleaf: 0
[19]; 31 g ai/ha
  Plant response rating, Velvetleaf: 0
[19]; 62 g ai/ha
  Plant response rating, Velvetleaf: 0
[19]; 125 g ai/ha
  Plant response rating, Velvetleaf: 0
